Measured values reported in ChEMBL document CHEMBL1157030 (Eur J Med Chem, 2010).

Assays:
Acetylcholinesterase = Acetylcholinesterase (Electrophorus electricus, UniProt O42275)
Description: inhibition of electric eel AChE by Ellman's method

Cholinesterase = Cholinesterase (Equus caballus, UniProt P81908)
Cholinesterase, sequence (P81908 whole entry): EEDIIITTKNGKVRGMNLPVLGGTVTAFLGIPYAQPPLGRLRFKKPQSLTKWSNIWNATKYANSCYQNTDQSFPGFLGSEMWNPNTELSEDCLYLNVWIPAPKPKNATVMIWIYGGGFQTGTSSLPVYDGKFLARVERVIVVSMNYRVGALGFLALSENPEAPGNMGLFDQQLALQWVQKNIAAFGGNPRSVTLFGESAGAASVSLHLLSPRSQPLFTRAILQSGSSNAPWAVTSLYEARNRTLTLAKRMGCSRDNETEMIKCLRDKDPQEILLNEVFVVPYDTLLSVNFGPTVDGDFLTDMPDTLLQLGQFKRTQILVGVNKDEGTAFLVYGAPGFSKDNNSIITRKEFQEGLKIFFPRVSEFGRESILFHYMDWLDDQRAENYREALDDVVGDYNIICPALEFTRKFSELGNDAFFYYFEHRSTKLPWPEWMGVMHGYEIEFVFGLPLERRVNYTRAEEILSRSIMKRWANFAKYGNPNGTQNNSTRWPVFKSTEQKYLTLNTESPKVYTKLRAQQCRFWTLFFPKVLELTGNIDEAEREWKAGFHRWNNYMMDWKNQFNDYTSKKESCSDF
Description: inhibition of equine serum BuChE by Ellman's method

Acetylcholinesterase, sequence (O42275 whole entry): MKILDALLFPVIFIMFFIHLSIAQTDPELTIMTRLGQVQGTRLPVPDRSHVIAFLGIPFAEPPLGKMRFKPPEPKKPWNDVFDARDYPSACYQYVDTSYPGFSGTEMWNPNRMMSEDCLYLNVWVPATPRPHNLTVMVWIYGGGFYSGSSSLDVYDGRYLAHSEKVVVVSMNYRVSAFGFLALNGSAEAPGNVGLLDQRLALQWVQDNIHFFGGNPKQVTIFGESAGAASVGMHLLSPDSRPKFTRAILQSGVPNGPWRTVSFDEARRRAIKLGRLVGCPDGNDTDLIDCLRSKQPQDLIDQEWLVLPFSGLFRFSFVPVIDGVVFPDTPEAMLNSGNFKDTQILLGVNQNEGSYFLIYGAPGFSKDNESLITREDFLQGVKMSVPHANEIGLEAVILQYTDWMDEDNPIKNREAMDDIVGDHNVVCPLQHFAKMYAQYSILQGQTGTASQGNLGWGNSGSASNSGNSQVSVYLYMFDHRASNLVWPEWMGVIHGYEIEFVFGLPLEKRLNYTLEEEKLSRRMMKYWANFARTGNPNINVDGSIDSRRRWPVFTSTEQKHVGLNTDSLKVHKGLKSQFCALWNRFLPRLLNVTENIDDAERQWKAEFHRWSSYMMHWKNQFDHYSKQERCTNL

With `O=C(CN1CCCCC1)Nc1ccc2ncn(CCc3c[nH]c4ccccc34)c(=O)c2c1` the IC50 (Acetylcholinesterase) was 1.52 µM and the IC50 (Cholinesterase) was 13 µM.

`O=C(CN1CCCC1)Nc1ccc2ncn(CCc3c[nH]c4ccccc34)c(=O)c2c1` gave an IC50 (Acetylcholinesterase) of 4.04 µM and an IC50 (Cholinesterase) of 25.9 µM.

`CCN(CC)CC(=O)Nc1ccc2nc3c4[nH]c5ccccc5c4ccn3c(=O)c2c1` gave an IC50 (Acetylcholinesterase) of 0.0571 µM and an IC50 (Cholinesterase) of 11.4 µM.

`O=C(CN1CCCC1)Nc1ccc2nc3n(c(=O)c2c1)CCc1c-3[nH]c2ccccc12` gave an IC50 (Acetylcholinesterase) of 0.131 µM and an IC50 (Cholinesterase) of 0.696 µM.

In the case of `O=C(CCN1CCCC1)Nc1ccc2nc3n(c(=O)c2c1)CCc1c-3[nH]c2ccccc12`, the IC50 (Acetylcholinesterase) is reported as 0.0292 µM and the IC50 (Cholinesterase) is reported as 0.845 µM.

With `O=C(CCN1CCCCC1)Nc1ccc2nc3n(c(=O)c2c1)CCc1c-3[nH]c2ccccc12` the IC50 (Acetylcholinesterase) was 0.0214 µM and the IC50 (Cholinesterase) was 2.11 µM.

In the case of `CCN(CC)CC(=O)Nc1ccc2ncn(CCc3c[nH]c4ccccc34)c(=O)c2c1`, the IC50 (Acetylcholinesterase) is reported as 7.68 µM and the IC50 (Cholinesterase) is reported as 41.6 µM.

For `O=C(CN1CCCCC1)Nc1ccc2nc3n(c(=O)c2c1)CCc1c-3[nH]c2ccccc12`, the IC50 (Acetylcholinesterase) was 0.111 µM and the IC50 (Cholinesterase) was 33 µM.

Work on `O=C(CN1CCCC1)Nc1ccc2nc3c4[nH]c5ccccc5c4ccn3c(=O)c2c1` yielded an IC50 (Acetylcholinesterase) of 0.0236 µM and an IC50 (Cholinesterase) of 0.428 µM.

For `O=C(CN1CCCCC1)Nc1ccc2nc3c4[nH]c5ccccc5c4ccn3c(=O)c2c1`, the IC50 (Acetylcholinesterase) was 0.0101 µM and the IC50 (Cholinesterase) was 5.43 µM.

For `CCN(CC)CC(=O)Nc1ccc2nc3n(c(=O)c2c1)CCc1c-3[nH]c2ccccc12`, the IC50 (Acetylcholinesterase) was 0.372 µM and the IC50 (Cholinesterase) was 17.6 µM.

Work on `CCN(CC)CCC(=O)Nc1ccc2nc3n(c(=O)c2c1)CCc1c-3[nH]c2ccccc12` yielded an IC50 (Acetylcholinesterase) of 0.0802 µM and an IC50 (Cholinesterase) of 2.85 µM.
